Experimental data published in paper PMC7018645, “Hijacking the Fusion Complex of Human Parainfluenza Virus as an Antiviral Strategy” (mBio, 2020).
Where two headings read alike, the source gives them in different places.

Key:
[1] = tested on: clinical isolate HPIV3 HN; assay: Hemadsorption (HAD) assay of HN-receptor binding; type: cell-based, human parainfluenza virus type 3; conditions: cells expressing clinical strain HN, RBC binding
Experimental: We assessed the effect of PAC-3066 on HPIV3 HN-receptor binding in a hemadsorption (HAD) assay that quantitates the binding of sialic acid receptor-bearing erythrocytes (RBC) to HN/F-coexpressing cells.
(§1) (A) Sensitivity of HN-receptor binding to viral entry inhibitors of cell monolayers expressing clinical isolate HPIV3 HN, incubated with either PAC-3066, zanamivir, or DMSO. Percent inhibition relative to that for DMSO-treated cells is shown. Each point represents the mean from 3 experiments, each of which was performed in triplicate, ± SEM. […] Each bar represents the results from triplicate experiments, each of which was performed in triplicate, ± SEM.
Hemadsorption (HAD) was performed and quantified as previously described ([13]). Briefly, the growth medium was aspirated from HN-transfected 293T cell monolayers in 48-well BioCoat plates (Becton Dickson Labware), the medium was replaced with 150 μl of CO2-independent medium (pH 7.3; Gibco) containing different concentrations of compounds and 1% RBC in serum-free CO2-independent medium, and the plates were placed at 4°C for 30 min. The wells were then washed three times with 150 μl cold CO2-independent medium. The bound RBCs were lysed with 200 μl RBC lysis solution (0.145 M NH4Cl, 17 mM Tris HCl), and the absorbance at 405 nm was read using a Tecan M-1000 Pro microplate reader.

[2] = tested on: HPIV3 clinical isolate HN neuraminidase; assay: Neuraminidase activity on cell monolayers expressing HN; type: biochemical, human parainfluenza virus type 3; conditions: 37°C, pH 5
Experimental: as §1
Assays for the measurement of neuraminidase activity were performed in transiently transfected 293T cell monolayers, as described previously ([13], [34], [82]). Briefly, 293T cells expressing HN were added to 96-well plates in CO2-independent medium at pH 5.0. After adding reaction mixtures containing 20 mM 2′-(4-methylumbelliferyl)-alpha-D-N-acetylneuraminic acid (Toronto Research Chemicals Inc.) substrate and different concentrations of the compounds, the plates were incubated at 37°C for 1 h. Throughout this period, the fluorescence resulting from hydrolysis of the substrate was read at a 365-nm excitation wavelength and a 450-nm emission wavelength using a Tecan M-1000 Pro microplate reader.

[3] = tested on: HPIV3 clinical isolate (CI-1) eGFP
mCherry-HPIV3 [4] = tested on: mCherry-HPIV3
[5] = tested on: HPIV3 clinical isolate (CI-1) eGFP; assay: microbe, parasite or virus in culture; conditions: Human respirovirus 3, read-out: IC50 for inhibition of viral entry
mCherry-HPIV3 [6] = assay: microbe, parasite or virus in culture; conditions: Human respirovirus 3, Vero, read-out: IC50 of pure compound (inhibition of viral spread)

Compound | effect on HN-receptor binding [1] | effect on viral neuraminidase activity [2] | inhibition of viral infection by HPIV3 [3] | combination effect with zanamivir (mCherry-HPIV3 [4]; PAC-3066 concentrations below 250 μM) | antagonism with zanamivir (mCherry-HPIV3 [4]; all pairwise combinations) | combination effect with zanamivir (mCherry-HPIV3 [4]; higher PAC-3066 concentrations, e.g. 1,000 μM) | combination effect with zanamivir (mCherry-HPIV3 [4]; range of zanamivir/PAC-3066 ratios, strongest at 1:1, 1:3 or greater, PAC-3066 250 μM, Combenefit) | IC50 [5] [µM] | IC50 (mCherry-HPIV3 [6]) [µM]
CC(=O)Nc1cc(NS(=O)(=O)c2ccc(F)cc2F)ccc1O [PAC-3066] | did not affect receptor binding | no inhibitory effect | inhibited viral infection by HPIV3 | only additive effects were observed | No significant antagonism was observed | no synergy | strong synergy | ~37 | 308
CC(=O)N[C@H]1[C@H]([C@H](O)[C@H](O)CO)OC(C(=O)O)=C[C@@H]1N=C(N)N [zanamivir, reference compound] | inhibits HN-receptor binding | inhibits HPIV3 HN’s neuraminidase | – | – | – | – | – | – | –
N#CCc1cc(NS(=O)(=O)c2cccs2)ccc1O [CM9, reference compound] | – | – | inhibited viral infection by HPIV3 | – | – | – | – | – | –
